In paper PMC5581232 (European journal of medicinal chemistry, 2017):
Read-outs that look alike come from different tables or passages of the source.

How the values were obtained:
[1] = test system: HBV; assay: Anti-HBV activity: HBV DNA replication; type: cell-based, Hepatitis B virus; conditions: for Anti-HBV activity (in words): HepAD38 cells
[2] = test system: HBeAg secretion (HBV cccDNA formation); assay: HBeAg reporter cell-based assay; set-up: species or system Hepatitis B virus; conditions: for Effect on secretion of HBeAg (in words): 3TC and ETV at 10 μM
[3] = molecular target: HBV Cp149 (Hepatitis B virus genotype D subtype ayw, UniProt P03146); assay: HBV Cp149 capsid formation by negative-stain electron microscopy; type: biochemical; conditions: 20 μM, 1 hr pre-incubation, assembly induced with NaCl overnight
Sequence of HBV Cp149 (P03146 1-149): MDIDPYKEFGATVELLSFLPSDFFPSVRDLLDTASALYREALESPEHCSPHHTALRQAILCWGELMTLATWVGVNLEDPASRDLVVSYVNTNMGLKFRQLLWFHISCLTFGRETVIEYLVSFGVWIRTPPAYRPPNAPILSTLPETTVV

[4] = Hepatitis B virus, HePAD38, read-out: HBeAg Secretion EC90, HepAD38 cells, ELISA
[5] = read-out: HBeAg Secretion EC90, HepAD38 cells, ELISA

Nc1ccn([C@@H]2CS[C@H](CO)O2)c(=O)n1 [Compound 3TC, lamivudine, reference compound]
EC50 ([1]; Hepatitis B virus, HePAD38, read-out: HBV DNA – Extracellular EC50): 0.04 ± 0.03 µM | Effect on secretion of HBeAg (in words) ([2]; HepAD38 cells): no effect

O=C(Nc1ccc(F)c(F)c1)c1cc(S(=O)(=O)NC2CCCC2)ccc1F [Compound 4a, 5-(N-Cyclopentylsulfamoyl)-N-(3,4-difluorophenyl)-2-fluorobenzamide]
Effect on HBV Cp149 capsid formation (morphology, negative-stain TEM) [3]: form greater numbers of disfigured circular assemblies | EC90 [2, 4]: 3 to 4 µM | EC90 [2, 5]: 4.6 ± 2 µM

O=C(Nc1ccc(F)c(F)c1)c1cc(S(=O)(=O)N2CC(F)(F)C2)ccc1F [Compound 4f, 5-((3,3-Difluoroazetidin-1-yl)sulfonyl)-N-(3,4-difluorophenyl)-2-fluorobenzamide]
Effect on HBV Cp149 capsid formation (morphology, negative-stain TEM) [3]: a large number of incomplete, but typically spherical capsids aggregated into clusters | EC90 [2, 4]: 3 to 4 µM | EC90 [2, 5]: 3.2 ± 0.01 µM

O=C(Nc1cc(S(=O)(=O)NC2CCCC2)ccc1F)c1ccc(F)c(F)c1 [Compound 16, N-(5-(N-Cyclopentylsulfamoyl)-2-fluorophenyl)-3,4-difluorobenzamide]
Anti-HBV activity (in words) [1]: complete loss of activity

O=C(NC1(c2ccc(F)c(F)c2)CC1)c1cc(S(=O)(=O)NC2CCCC2)ccc1F [Compound 19, 5-(N-Cyclopentylsulfamoyl)-N-(1-(3,4-difluorophenyl)cyclopropyl)-2-fluorobenzamide]
Anti-HBV activity (in words) [1]: complete loss of activity

CC(C)(NC(=O)c1cccc(S(=O)(=O)NC2CCCC2)c1)c1ccc(F)c(F)c1 [Compound 21, 3-(N-Cyclopentylsulfamoyl)-N-(2-(3,4-difluorophenyl)propan-2-yl)benzamide]
Effect on HBV Cp149 capsid formation (morphology, negative-stain TEM) [3]: properly formed HBV Cp149 capsids | Anti-HBV activity (in words) [1]: complete loss of activity

C=C1[C@H](CO)[C@@H](O)C[C@@H]1n1cnc2c(=O)[nH]c(N)nc21.O [ETV, entecavir]
Effect on secretion of HBeAg (in words) ([2]; HepAD38 cells): no effect

CCOC(=O)C1=C(CN2CCOCC2)NC(c2nccs2)=NC1c1ccc(F)cc1Br (stereo not shown) [GLS-4]
Effect on secretion of HBeAg (in words) ([2]; HepAD38 cells): reduced secretion of HBeAg | EC90 [2, 4]: 2 µM | EC90 [2, 5]: 1.9 ± 0.04 µM
